Results published in US20230331674A1 (priority 2020, published 2023).
Values joined by “and” are separate entries in the source; they are usually repeats but may differ in a detail not shown here. Equal entries are not always repeated.

Assays:
Type in all cases: in vivo, dog
[1] = tested on: dogs with canine cognitive dysfunction; assay: CADES score questionnaire in dogs with cognitive dysfunction; conditions: for Average CADES score: treated dogs
Description: Thirty-one dogs older than 10 years were screened for the study. Of these, 14 were excluded from the study because of different abnormal findings observed during the initial examination, including 3 dogs with brain tumor confirmed with the computed tomography (CT); 2 dogs with markedly elevated alanine aminotransferase (ALT) and serum alkaline phosphatase (ALP); 3 dogs with renal disease; 3 dogs with marked hearing and visual deficit; 2 dogs with both renal disease and moderately elevated ALT and ALP and 1 dog with eclampsia.
After the owner's consent, dogs were subjected to physical and neurological examination including body weight and body condition score, blood results for complete blood count (CBC), clinical chemistry, urinanalysis, the canine dementia scale (CADES) questionnaire, and two clinical cognitive tests [food searching test (FST) and problem solving test (PST)]. After these thorough examinations, the decision was made whether the dogs were included in the study. Dogs with systemic illnesses that could interfere with their cognitive function were excluded from the study.
Only dogs aged 10 years or older were included in the study. […] Dogs were not treated with any other medications for cognitive impairment. However, dogs that were included in the control group were allowed to be feed with the commercial therapeutic diet for cognitive decline, if they were on it at least 8 weeks before entering the study and if they maintained the same dietary protocol for the duration of the study. Dogs in the treatment group that were on a diet meant to treat cognitive decline were required to be off the diet for at least 30 days before enrollment and during the duration of the study.
(§1) The study design was following the guidelines of the European Directive 2010/63/EU. Before starting the experimental therapy with their pets, each owner was required to sign an informed consent form. According to The Administration of the Republic of Slovenian for Food Safety, Veterinary and Plant Protection, no ethical permission was needed as the study was performed on clinical patients with the owners' consents. In total, seventeen dogs showing signs of cognitive dysfunction were included in the study. […] Upon enrollment, dogs were physically and neurologically examined, blood and urine analysis were performed. Additionally, a questionnaire based on a modified CADES scale score and two clinical tests (FST and problem PST) for assessing their cognitive function were performed. Dogs were randomly allocated to one of the following two groups: Control group (n=7) without treatment and the treatment group (n=10). Questionnaire and cognitive tests were performed every 2 months on all the dogs included in the study.
Owners were observing their dog's health status daily during the duration of the study. In case of any serious or abnormal observations, they had to contact the participating veterinarian. Physical and excessive neurological examinations (behavior and consciousness, cranial nerves, gait and posture, postural reactions, spinal reflexes) were carried out by the veterinarian and included an assessment of all body systems. A full spectrum of neurobehavioral symptoms including apathy, anxiety, staring blankly, confusion or aimless walking, vocalization during the night, aggression, signs of compulsive and stereotyped behavior, etc. were obtained by questioning the pet owners. Dogs were monitored during examinations. Their responses to familiar and unfamiliar people and objects were observed. Exams were performed at the beginning of the study and every two weeks for the first two months if dogs were included in the treatment group. Thereafter, exams were performed every two months for the duration of the study (at least for 6 months). The control group was examined only every 2 months until the end of the study (for at least 6 months).
Changes in behavior of all dogs were evaluated by the same veterinarian. […]

[2] = tested on: dogs with canine cognitive dysfunction; assay: Side effects during treatment of dogs with cognitive dysfunction
Protocol: as §1
Owners were observing their dog's health status daily during the duration of the study. In case of any serious or abnormal observations, they had to contact the participating veterinarian. […] Dogs were monitored during examinations. […]

[3] = tested on: dogs with canine cognitive dysfunction; assay: Cognitive tests (food searching test FST and problem solving test PST) in dogs with cognitive dysfunction; parameters: Problem solving test scores (sum of FST and PST test), individual patient: scale not given here; conditions: for Problem solving score (sum of FST and PST), group mean: treated dogs; for Problem solving test scores (sum of FST and PST test), individual patient: treated group, one line per patient 1-7, Hydrochloride
Protocol: as §1
FST and PST were performed on each dog included in the study. The design of these tests was based on previously published tests for canine cognitive dysfunction (González-Martinez A. et al. Vet. J. 2013, 198, 176-181). The cognitive tests were evaluated by the same veterinarian. Dogs were tested in the morning after at least 10 hours of the fasting period.
This test was based on testing the dog's ability to find hidden food. The dog was seated in the middle of the room while being on the leash. […] While maintaining visual contact with the dog and still communicating with the dog, showing the food, the veterinarian than moved backward and placed the food in the corner of the room. The veterinarian than stared at the food and pointed to it with his hand for 2-3 s to increase the dog's visual processing. The owner was then asked to leave the room with the dog and wait outside for 15 s. After returning to the room, the dog was placed into the center of the room unleashed and allowed to freely explore the room for 1 minute. No verbal or other clues were allowed. The procedure was repeated twice. […] The FST total score was the average of both runs.
In this test, the ability of the dog to obtain the food by manipulating an object was assessed. […] After that, the food was placed on the floor in front of the dog and covered with a transparent plastic box that had been turned upside down. The dog was given 2 minutes to find a way to remove the box and get the food. […]
Results are presented as mean+SD. […] CADES score and results from behavioral tests were analyzed by repeated measures ANOVA with treatment as the independent variable and clinical test (before the treatment, 3 months, and 6 months after the treatment) as within factor. […]

[4] = treated group, after three months

## COCCN(CC1CCCN(Cc2ccccc2)C1)S(=O)(=O)c1ccc2ccccc2c1.Cl (racemic) [(±)-N-((1-Benzylpiperidin-3-Yl)Methyl)-N-(2-Methoxyethyl)Naphthalene-2-Sulfonamide Hydrochloride]
[1]; all treated dogs, six-month study
  Observed change in cognitive abilities: improved memory, cognitive functions, and learning abilities
[1]; after six months, untreated (2 remaining dogs) 80.5
  Average CADES score: 12.6+/−3.0
[1]; after three months, baseline 39+/−16.4, untreated 64.0+/−12.8
  Average CADES score: 17.1+/−10.6
[1]; treated group, after six months
  Cognitive state according to CADES: all dogs showed moderate cognitive impairment with low CADES score
[1]; [4]
  Dogs showing moderate cognitive impairment (two affected domains): 85.7%
  Dogs showing severe cognitive impairment (three affected domains): 14.3%
[1]; treated group, six-month study, 5 of 7 untreated dogs euthanized
  Survival: all dogs included stayed alive throughout the study
[2]; dogs with moderate cognitive impairment, 6 months of treatment
  Side effects: without any noticeable side effects
[2]; dogs with severe cognitive impairment (3 dogs), treatment stopped
  Side effects: signs of gastrointestinal problems with vomiting and diarrhea
[3]; after six months
  Problem solving score (sum of FST and PST), group mean: 2.7+/−1.0
  Problem solving test scores (sum of FST and PST test), individual patient: 2 (4×) and 3 and 4 (2×)
[3]; after three months, baseline 5.3+/−1.4, untreated 7.6+/−1
  Problem solving score (sum of FST and PST), group mean: 3.1+/−1.1
[3]; after three months
  Problem solving test scores (sum of FST and PST test), individual patient: 4 (4×) and 2 (3×)
